The source of these data is patent US20150284375A1 (AJINOMOTO CO., INC., priority 2012, published 2015).

Structures are written as SMILES.

T1 sequence (O75762 whole entry): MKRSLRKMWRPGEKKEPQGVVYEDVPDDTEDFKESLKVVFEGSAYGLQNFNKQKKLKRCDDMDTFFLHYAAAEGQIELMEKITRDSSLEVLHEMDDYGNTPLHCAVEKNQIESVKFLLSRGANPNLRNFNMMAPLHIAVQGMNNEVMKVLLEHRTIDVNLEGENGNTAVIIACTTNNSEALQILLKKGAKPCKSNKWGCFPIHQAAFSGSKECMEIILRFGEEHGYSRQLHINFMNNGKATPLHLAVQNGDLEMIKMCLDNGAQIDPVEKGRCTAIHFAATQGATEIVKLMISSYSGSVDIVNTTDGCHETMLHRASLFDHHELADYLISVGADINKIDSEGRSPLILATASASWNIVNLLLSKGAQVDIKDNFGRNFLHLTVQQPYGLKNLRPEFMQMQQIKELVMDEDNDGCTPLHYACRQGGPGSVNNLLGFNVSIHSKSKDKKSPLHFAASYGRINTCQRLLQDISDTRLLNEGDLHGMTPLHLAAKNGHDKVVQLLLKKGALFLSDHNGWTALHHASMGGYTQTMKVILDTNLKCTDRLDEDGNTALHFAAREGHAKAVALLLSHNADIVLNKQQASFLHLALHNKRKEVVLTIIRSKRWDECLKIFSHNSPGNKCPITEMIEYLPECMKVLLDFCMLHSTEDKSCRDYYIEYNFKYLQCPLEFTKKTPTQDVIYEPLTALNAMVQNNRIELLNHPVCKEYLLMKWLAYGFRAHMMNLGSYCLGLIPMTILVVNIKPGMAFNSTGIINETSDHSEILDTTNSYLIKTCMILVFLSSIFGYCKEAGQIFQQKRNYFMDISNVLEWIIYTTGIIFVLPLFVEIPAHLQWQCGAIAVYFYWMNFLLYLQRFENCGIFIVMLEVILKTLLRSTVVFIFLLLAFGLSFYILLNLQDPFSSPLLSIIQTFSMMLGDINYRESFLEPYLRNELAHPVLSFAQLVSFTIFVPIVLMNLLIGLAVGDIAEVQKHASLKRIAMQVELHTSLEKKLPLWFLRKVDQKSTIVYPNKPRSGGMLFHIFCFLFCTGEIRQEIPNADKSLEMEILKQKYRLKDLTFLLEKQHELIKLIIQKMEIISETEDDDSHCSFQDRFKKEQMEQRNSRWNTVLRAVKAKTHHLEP

This assay concerns the target T1, human TRPA1 (Homo sapiens, UniProt O75762).
T1 construct: expressed in transfected cells; host or cells: Human embryonic kidney-derived 293T cells, transiently transfected with the pcDNA3.1/zeo(+) human TRPA1 plasmid
Description: Measurement of TRPA1 antagonist activity (intracellular calcium increase, FLIPR, allylisothiocyanate stimulation). The assay is classed as cell-based. As to conditions: allylisothiocyanate 20 μM stimulation, FLIPR calcium assay; read-out: antagonism hTRPA1. The method in brief:
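IC50 derives from a sigmoid fit of inhibition of the 5-min FLIPR fluorescence change evoked by 20 μM allylisothiocyanate, normalized between agonist and buffer responses. Test substance, diluted in HBSS/20 mM HEPES pH 7.2 plus 0.1% BSA, was applied 10 min beforehand at room temperature to Calcium4-loaded 293T cells transiently expressing human TRPA1.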
On to `O=C(NCc1cccc(OCc2ccc(C(F)(F)F)cc2)c1)[C@@H]1CCCN1S(=O)(=O)c1cnn(C(F)F)c1` [Example 205, (2S)-1-[1-(difluoromethyl)pyrazol-4-yl]sulfonyl-N-[[3-[[4-(trifluoromethyl)phenyl]methoxy]phenyl]methyl]pyrrolidine-2-carboxamide], for which the IC50 came to 0.28 µM.

For `O=C(NCc1cccc(OCc2ccc(C(F)(F)F)cc2)c1)[C@@H]1CCCN1S(=O)(=O)c1cnc2ccccc2c1` [Example 206, (2S)-1-(3-quinolylsulfonyl)-N-[[3-[[4-(trifluoromethyl)phenyl]methoxy]phenyl]methyl]pyrrolidine-2-carboxamide], the IC50 turned out to be 0.29 µM.

On to `O=C(NCc1cccc(OCc2ccc(C(F)(F)F)cc2)c1)[C@@H]1CCCN1S(=O)(=O)c1ccc2ncccc2c1` [Example 207, (2S)-1-(6-quinolylsulfonyl)-N-[[3-[[4-(trifluoromethyl)phenyl]methoxy]phenyl]methyl]pyrrolidine-2-carboxamide], for which the IC50 came out at 1.2 µM.

Take `O=C(NCc1cccc(OCc2ccc(C(F)(F)F)cc2)c1)[C@@H]1CCCN1S(=O)(=O)c1cc2ccccc2s1` [Example 208, (2S)-1-(benzothiophen-2-ylsulfonyl)-N-[[3-[[4-(trifluoromethyl)phenyl]methoxy]phenyl]methyl]pyrrolidine-2-carboxamide]: the IC50 came out at 0.087 µM.

As for `O=C(NCc1cccc(OCc2ccc(C(F)(F)F)cc2)c1)[C@@H]1CCCN1S(=O)(=O)c1ccc2ncsc2c1` [Example 209, (2S)-1-(1,3-benzothiazol-6-ylsulfonyl)-N-[[3-[[4-(trifluoromethyl)phenyl]methoxy]phenyl]methyl]pyrrolidine-2-carboxamide], the IC50 amounted to 2.9 µM.

On to `O=C(NCc1cccc(OCc2ccc(C(F)(F)F)cc2)c1)[C@@H]1CCCN1S(=O)(=O)c1ccc2nsnc2c1` [Example 210, (2S)-1-(2,1,3-benzothiadiazol-5-ylsulfonyl)-N-[[3-[[4-(trifluoromethyl)phenyl]methoxy]phenyl]methyl]pyrrolidine-2-carboxamide], for which the IC50 worked out at 0.15 µM.

`O=C(NCc1cccc(OCc2ccc(C(F)(F)F)cc2)c1)[C@@H]1CCCN1S(=O)(=O)c1cccc2nsnc12` [Example 211, (2S)-1-(2,1,3-benzothiadiazol-4-ylsulfonyl)-N-[[3-[[4-(trifluoromethyl)phenyl]methoxy]phenyl]methyl]pyrrolidine-2-carboxamide]: the IC50 came out at 5.5 µM.

As to `O=C(NCc1cccc(OCc2ccc(C(F)(F)F)cc2)c1)[C@@H]1CCCN1S(=O)(=O)c1cccc2nonc12` [Example 212, (2S)-1-(2,1,3-benzoxadiazol-4-ylsulfonyl)-N-[[3-[[4-(trifluoromethyl)phenyl]methoxy]phenyl]methyl]pyrrolidine-2-carboxamide], the IC50 worked out at 6.2 µM.

As to `O=C(NCc1cccc(OCc2ccc(C(F)(F)F)cc2)c1)[C@@H]1CC=CCN1S(=O)(=O)c1ccc(F)cc1` [Example 213, (2S)-1-(4-fluorophenyl)sulfonyl-N-[[3-[[4-(trifluoromethyl)phenyl]methoxy]phenyl]methyl]-3,6-dihydro-2H-pyridine-2-carboxamide], the IC50 stood at 0.35 µM.

Take `O=C(NCc1cccc(OCc2ccc(C(F)(F)F)cc2)c1)[C@@H]1[C@H]2CC[C@H](C2)N1S(=O)(=O)c1ccc(F)cc1` [Example 214, (1S,2S,4R)-3-(4-fluorophenyl)sulfonyl-N-[[3-[[4-(trifluoromethyl)phenyl]methoxy]phenyl]methyl]-3-azabicyclo[2.2.1] heptane-2-carboxamide]: the IC50 was 0.12 µM.

In the case of `O=C(NCc1cccc(OCc2ccc(C(F)(F)F)cc2)c1)[C@@H]1[C@H]2CC[C@H](C2)N1S(=O)(=O)c1ccsc1` [Example 215, (1S,2S,4R)-3-(3-thienylsulfonyl)-N-[[3-[[4-(trifluoromethyl)phenyl]methoxy]phenyl]methyl]-3-azabicyclo[2.2.1]heptane-2-carboxamide], the IC50 is 0.11 µM.

For `O=C(NCc1cccc(OCc2ccc(C(F)(F)F)cc2)c1)[C@@H]1CCCN1S(=O)(=O)c1ccncc1` [Example 216, (2S)-1-(4-pyridylsulfonyl)-N-[[3-[[4-(trifluoromethyl)phenyl]methoxy]phenyl]methyl]pyrrolidine-2-carboxamide], the IC50 was 0.06 µM.

As for `O=C(NCc1cccc(OCc2ccc(C(F)(F)F)cc2)c1)[C@@H]1CCCN1S(=O)(=O)c1cncs1` [Example 217, (2S)-1-thiazol-5-ylsulfonyl-N-[[3-[[4-(trifluoromethyl)phenyl]methoxy]phenyl]methyl]pyrrolidine-2-carboxamide], the IC50 is 0.94 µM.

As for `O=C(NCc1cccc(OCc2ccc(C(F)(F)F)cc2)c1)[C@@H]1CCCN1S(=O)(=O)c1cscn1` [Example 218, (2S)-1-thiazol-4-ylsulfonyl-N-[[3-[[4-(trifluoromethyl)phenyl]methoxy]phenyl]methyl]pyrrolidine-2-carboxamide], the IC50 is 0.83 µM.

For the compound `O=C(NCc1cccc(OCc2ccc(C(F)(F)F)cc2)c1)[C@@H]1CCCN1S(=O)(=O)c1nc2ccccc2s1` [Example 219, (2S)-1-(1,3-benzothiazol-2-ylsulfonyl)-N-[[3-[[4-(trifluoromethyl)phenyl]methoxy]phenyl]methyl]pyrrolidine-2-carboxamide], the IC50 is 0.12 µM.

For `O=C(NCc1cccc(OCc2ccc(C(F)(F)F)cc2)c1)[C@@H]1CCCN1S(=O)(=O)n1ccnc1` [Example 220, (2S)-1-imidazol-1-ylsulfonyl-N-[[3-[[4-(trifluoromethyl)phenyl]methoxy]phenyl]methyl]pyrrolidine-2-carboxamide], the IC50 is 0.19 µM.
